{
  "source": "patent US7576113B2",
  "about": "“Use of (E)-5-(4-chlorbenzyliden)-2,2-dimethyl-1-(1H-1,2,4-triazol-1-ylmethyl) cyclopentanol for combating rust attacks on soya plants” (BASF Aktiengesellschaft, priority 2004, dated 2009)",
  "format_in_all_cases": "in vivo",
  "key": {"Phakopsora pachyrhizi [1]": {"test_system": "Phakopsora pachyrhizi", "test": "Curative treatment of diseased soybean plants, field experiments", "experimental": "In field experiments, different varieties of soybean plants whose leaves were already infested with Phakopsora pachyrhizi were treated with an aqueous triticonazole preparation using equipment conventionally used under practice conditions. The application rates were from 20 to 200 g/ha. 25 days after the treatment, the disease level on the untreated, but infested, leaves had developed to such an extent that it covered 50% of the leaf area. In the treated plants, in contrast, Phakopsora pachyrhizi disease had only reached a maximum of 25%."}, "Phakopsora pachyrhizi [2]": {"test_system": "Phakopsora pachyrhizi", "test": "Protective treatment of soybean plants, field experiments", "experimental": "In field experiments, different varieties of soybean plants were treated with an aqueous triticonazole preparation. The application rates amounted to 20 to 200 g/ha. Thereafter, the plants were inoculated with Phakopsora pachyrhizi. 25 days after the treatment, the disease level on the untreated, but infested, leaves had developed to such an extent that it covered 50% of the leaf area. In the treated plants, in contrast, Phakopsora pachyrhizi disease had only reached a maximum of 25%."}, "Phakopsora pachyrhizi [3]": {"test_system": "Phakopsora pachyrhizi", "test": "Seed treatment of soybean c.v. Embrapa 48, rust disease of leaf areas", "conditions": "seed treatment 12.5, 25, 50, 100 and 250 g per 100 kg of seed, all cases, after 50 days; untreated at least 50%", "experimental": "Seed of soybean plants c.v. “Embrapa 48” were treated with a composition suitable for seed treatment, comprising triticonazole as active substance, at application rates in the range of from 12.5 g, 25 g, 50 g, 100 g and 250 g of triticonazole per 100 kg of seed. Thereafter, the seed was sown. The soybean plants thus grown were then inoculated with Phakopsora pachyrhizi. After 50 days, the level of rust disease of the leaf areas was determined. The disease level in the plants from untreated seed was at least 50%, whereas the disease level of the leaf area in plants from treated seed was less than 25% in all cases."}, "Phakopsora pachyrhizi [4]": {"test_system": "Phakopsora pachyrhizi", "test": "Protective activity against soybean rust via seed treatment, field experiment in Brazil", "conditions": "cultivar IAC 8.2, 60 DAT, untreated 40", "experimental": "A defined amound of a commercial ready-to-used formulation of Triticonazole (suspension concentrate, concentration of active ingredient 200 g/l), corresponding to the desired application (a.r.) rate of 5, 15, 30 und 50 g ai/100 kg soybean was diluted with water to a total volume of 1 Ltr./100 kg Soybean.\nSoybean seeds of the cultivar “IAC 8.2” were treated in a commercial device for dressing seeds with the thus prepared aqueous suspension of triticonazole and then seeded in a field experiment in Brazil. The leaves of the soybean plants thus grown were inoculated at an appropriate growing stage with a spore suspension of soybean rust (Phakopsora pachyrhizi). Thereafter the plants were kept wet for 6-8 h overnight by means of a finely dripping sprinkling device. During this time the spores germinated and their germ tubes penetrated into the leaf tissue. 60 days after treatment (60 DAT) or seeding, respectively, the extent of rust formation on the leaves of the infected plants was determinated."}, "Phakopsora pachyrhizi [5]": {"test_system": "Phakopsora pachyrhizi", "test": "Curative activity against soybean rust via spray application, potted seedlings in greenhouse", "conditions": "3 days after inoculation, cultivar Hutcheson, untreated 80", "experimental": "A commercial ready-to-used formulation of Triticonazole (suspension concentrate, concentration of active ingredient 200 g/l) was diluted with water to the active ingredient concentraten (act.conc.) given in Table 2.\nLeaves of potted soybean seedlings of the cultivar “Hutcheson” were inoculated with a suspension of spores of soybean rust (Phakopsora pachyrhizi). The pots were placed in a chamber with high atmospheric humidity (90 to 95%) at 22 to 24° C. for 24 hours. During this time, the spores germinated and the germ tubes penetrated into the leaf tissue. After 3 days, the infected plants were sprayed to runoff point with an aqueous suspension having the concentration of active compound as given in table 2. The suspensions or emulsions were prepared as described above. After the spray coating was dry, the test plants were cultivated in a greenhouse at temperatures between 22 and 24° C. and at 90% relative humidity for 17 days. The extent of the rust development on the leaves was then determined."}},
  "data": [
    {"smiles": "CC1(C)CC/C(=C\\c2ccc(Cl)cc2)C1(O)Cn1cncn1", "note": "(centres unmarked) [triticonazole, (E)-5-(4-chlorobenzylidene)-2,2-dimethyl-1-(1H-1,2,4-triazol-1-ylmethyl)cyclopentanol]", "values": [
      {"measurement": "yield in comparison with the untreated control", "setting": "Phakopsora pachyrhizi [1]; 20 to 200 g/ha, field", "result": "markedly improved"},
      {"measurement": "Phakopsora pachyrhizi disease level (leaf area covered)", "setting": "Phakopsora pachyrhizi [1]; aqueous preparation 20 to 200 g/ha, 25 days after treatment, different soybean varieties, untreated 50%", "result": "≤ 25", "unit": "%"},
      {"measurement": "yield in comparison with the untreated control", "setting": "Phakopsora pachyrhizi [2]; 20 to 200 g/ha, field", "result": "markedly improved"},
      {"measurement": "Phakopsora pachyrhizi disease level (leaf area covered)", "setting": "Phakopsora pachyrhizi [2]; aqueous preparation 20 to 200 g/ha, inoculated after treatment, 25 days after treatment, untreated 50%", "result": "≤ 25", "unit": "%"},
      {"measurement": "disease level of the leaf area", "setting": "Phakopsora pachyrhizi [3]", "result": "less than 25%"},
      {"measurement": "% infected leaf area (60 DAT)", "setting": "Phakopsora pachyrhizi [4]; seed treatment a.r. 5 g/100 kg", "result": 23, "unit": "%"},
      {"measurement": "% infected leaf area (60 DAT)", "setting": "Phakopsora pachyrhizi [4]; seed treatment a.r. 15 g/100 kg", "result": 11, "unit": "%"},
      {"measurement": "% infected leaf area (60 DAT)", "setting": "Phakopsora pachyrhizi [4]; seed treatment a.r. 30 g/100 kg", "result": 9, "unit": "%"},
      {"measurement": "% infected leaf area (60 DAT)", "setting": "Phakopsora pachyrhizi [4]; seed treatment a.r. 50 g/100 kg", "result": 3, "unit": "%"},
      {"measurement": "% infected leaf area (17 DAT)", "setting": "Phakopsora pachyrhizi [5]; spray act. conc. 1 ppm", "result": 9, "unit": "%"},
      {"measurement": "% infected leaf area (17 DAT)", "setting": "Phakopsora pachyrhizi [5]; spray act. conc. 4 ppm", "result": 1, "unit": "%"}
    ]}
  ]
}
